Results: patent US10118930B2, “Piperidinylpyrazolopyrimidinones and their use” (BAYER PHARMA AKTIENGESELLSCHAFT, priority 2015, dated 2018)
Where a name gives a salt, the structure may show the parent alone.

Test system: clot lysis (fibrinolysis) in diluted human citrated plasma, tPA-induced
Experiment: Plasma-based clot lysis assay (5%)
Assay type: biochemical
Conditions: human citrated platelet-poor plasma 5%, fibrinogen 3 μM, CaCl2 10 mM, tPA 0.2 nM, 37° C., OD at 405 nm
Outline: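 Clot formation and breakdown triggered by CaCl2 (10 mM final) plus tPA (0.2 nM final) at 37° C, in 5% diluted human plasma supplemented with 3 μM fibrinogen (HEPES/NaCl/Brij buffer, pH 7). IC50 obtained from time courses relative to a blank control.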

Q: For `Cc1ccc(Cc2noc(-c3cnn4c(C5CCNCC5)cc(=O)[nH]c34)n2)cc1` [Example 214, 3-[3-(4-methylbenzyl)-1,2,4-oxadiazol-5-yl]-7-(piperidin-4-yl)pyrazolo[1,5-a]pyrimidin-5(4H)-one hydrochloride], which IC50 is on record?
A: 32 nM

Q: With `CC(C)(C)C(=O)c1cnn2c(C3CCNCC3)cc(=O)[nH]c12` [Example 456, 3-(2,2-dimethylpropanoyl)-7-(piperidin-4-yl)pyrazolo[1,5-a]pyrimidin-5(4H)-one hydrochloride] as the molecule, how does the IC50 read?
A: 39 nM

Q: For `O=C(c1cnn2c(C3CCNCC3)cc(=O)[nH]c12)N1CCC(O)CC1` [Example 95, 3-[(4-hydroxypiperidin-1-yl)carbonyl]-7-(piperidin-4-yl)pyrazolo[1,5-a]pyrimidin-5(4H)-one hydrochloride], which IC50 is on record?
A: 43 nM

Q: Which IC50 does the source give for `COC[C@@H]1CCCN1C(=O)c1c(C)nn2c(C3CCNCC3)cc(=O)[nH]c12` [Example 398, 3-{[(2S)-2-(methoxymethyl)pyrrolidin-1-yl]carbonyl}-2-methyl-7-(piperidin-4-yl) pyrazolo[1,5-a] pyrimidin-5(4H)-one hydrochloride] here?
A: 34 nM

Q: How did the IC50 turn out when `CCCN(CC)C(=O)c1c(C)nn2c(C3CCNCC3)cc(=O)[nH]c12` [Example 432, N-ethyl-2-methyl-5-oxo-7-(piperidin-4-yl)-N-propyl-4,5-dihydro-pyrazolo[1,5-a] pyrimidine-3-carboxamide hydrochloride] was run?
A: 120 nM

Q: How did the IC50 turn out when `COc1ccccc1Cc1nnc(-c2cnn3c(C4CCNCC4)cc(=O)[nH]c23)o1` [Example 280, 3-[5-(2-methoxybenzyl)-1,3,4-oxadiazol-2-yl]-7-(piperidin-4-yl)pyrazolo[1,5-a]pyrimidin-5(4H)-one hydrochloride] was run?
A: 29 nM

Q: `O=c1cc(C2CCNCC2)n2nc(-c3ccc(F)cc3)cc2[nH]1` [Example 27, 2-(4-Fluorophenyl)-7-(piperidin-4-yl)pyrazolo[1,5-a]pyrimidin-5(4H)-one hydrochloride] was tested. Which IC50 did it give?
A: 170 nM
